Reference: US7511078B2, “Antiallergic agents, drugs, foods, drinks or cosmetics containing them and process for producing the same” (Kikkoman Corporation, priority 2001, dated 2009)
Values after ≈ are worked out from the molar mass of the structure shown. Where a name gives a salt, the structure may show the parent alone.

Key:
rat fat cells = assay: Histamine-release inhibiting activity from rat fat cells (Compound 48/80 induced); type: cell-based; details: for IC50: 50% inhibition rate; for inhibition at 25 µg/mL: sample concentration 25 μg/ml; for inhibition at 75 µg/mL: sample concentration 75 μg/ml; for activity relative to the known agents (caffeic acid, ketotifen fumarate): from IC50 values of histamine-release inhibition; for histamine-release inhibiting activity (FIG. 7): sample solutions 100 μg/ml each; for inhibition at 250 µg/mL: sample concentration 250 μg/ml
Experimental: Cells were collected from the abdominal cavity of rats immediately after being sacrificed by exsanguinations using heparin-containing fat cell buffer (composition: 0.150 M NaCl, 3.7 mM KCl, 3.0 mM Na2HPO4, 3.5 mM KH2PO4, 0.9 mM CaCl2, 5.6 mM D-glucose, 0.1% (w/v) gelatin) (Lectures on Experimental Biopharmacology, Vol.12, Inflammations and Allergies II, edited by Kazuo Ohuchi, published by Hirokawa Publishing, 1993, page 372). After washing the cells, the above heparin-containing fat cell buffer was added to a concentration of 2.0×10^5 cells/ml, and this was used as the cell suspension.
Meanwhile, 3 mg of tomato extract were dissolved in 1 ml of 1% dimethyl sulfoxide (DMSO) and used as a sample solution. Further, the naringenin chalcone obtained in Example 1-3, and ketotifen fumarate, which is known to have an antiallergic activity, were respectively dissolved in the heparin-containing fat cell buffer containing 0.15% DMSO (final concentration), and the tricaffeoylquinic acid obtained in Example 1-4, and caffeic acid, which is known to have an antiallergic activity, were respectively dissolved in heparin-containing fat cell buffer containing 0.08% ethanol (final concentration), and each of these were used as sample solutions having concentrations of 25-250 μg/ml.
80 μl of the above cell suspension were added to 20 μl of the sample solution and the mixture was incubated at 37° C. for 10 minutes. Subsequently, 20 μl of Compound 48/80 (5 μg/ml) were added as histamine-degranulation inducer, and the mixture was incubated for 10 minutes. After the mixture was cooled with ice, it was separated by centrifugation (1,500×g, 5 minutes, 4° C.), and the free histamine in the supernatant was measured by high-performance liquid chromatography equipped with a fluorescent detector.
Histamine-release inhibiting activity was calculated from the measured histamine values using calculation formula (1) shown below. Histamine-release inhibition rate (%)=(1−(S−B)/(C−B))×100 (1) • B: Amount of histamine released from control cells in the absence of inducer • C: Amount of histamine released from cells in the presence of inducer • S: Amount of histamine released from cells in the presence of test sample and inducer

rat macrophages = assay: Leukotriene B4 release inhibiting activity from rat macrophages (opsonized zymosan, ELISA); type: cell-based; details: Macrophage, read-out: Inhibition rate (%); for inhibition at 5 µg/mL: sample concentration 5 μg/ml; for inhibition at 50 µg/mL: sample concentration 50 μg/ml; for inhibition at 500 µg/mL: sample concentration 500 μg/ml
Experimental: Soluble starch (Wako, grade 1) and Bactopeptone (Difco) were suspended in physiological saline (0.9% NaCl, Ohtsuka Pharmaceutical, Co.) to have a concentration of 5% each. After sterilizing with an autoclave (121° C., 20 minutes), the suspension was cooled down to room temperature. The suspension was administered by injection into rat abdominal cavity in an amount of 5 mL per 100 g of body weight under ether anesthesia (using a 21G needle).
Four days later, the rats were sacrificed by exsanguination from the carotid artery under ether anesthesia. After adequately exsanguinating the rats, the rats were sprayed with ethanol and placed in a clean bench. 25 mL of CMF-HBSS (Ca, Mg free HBSS) were injected into the abdominal cavity followed by adequately rubbing the abdomen. The rats were laparotimized using sterilized instruments, and the solution within the abdominal cavity was collected. The collected solution was filtered using three layers of gauze. The abdominal cavity was further washed with 25 mL of CMF-HBSS (Ca, Mg free HBSS), and the solution was collected in the same manner. The collected cells were washed three times with ice-cold 0.1% BSA-PBS, suspended in 10% FBS-RPMI1640 medium. The cell suspension was dispersed in a 6 cm Petri dish to have 4.5×10^6 cells/3 mL/dish, and incubated for 2 hours in an incubator kept at 5% CO2 and 37° C. Subsequently, the supernatant was discarded, the Petri dish was washed three times with PBS to rinse off non-adherent cells, and the cells adhered onto inside of the Petri dish were used as macrophages. After the macrophages were pre-incubated for 20 minutes in 1% FBS-RPMI1640 medium, zymosan opsoninized using rat serum was added thereto, and the mixture was cultured in an incubator kept at 5% CO2 and 37° C. for a predetermined period of time. Incidentally, samples were added 30 minutes before addition of zymosan. After completion of culture, supernatant from the culture was recovered and the amount of LTB4 in the supernatant was measured using an ELISA kit (Leukotriene B4 EIA Kit, Cayman). Activity of inhibiting release of leukotriene B4 was calculated from the measured leukotriene B4 values using the following calculation formula (2): Leukotriene B4 release inhibition rate (%)=(1−(S−B)/(C−B))×100 (2) • B: Amount of leukotriene B4 released from control cells in the absence of inducer • C: Amount of leukotriene B4 released from cells in the presence of inducer • S: Amount of leukotriene B4 released from cells in the presence of test sample and inducer

mouse auricular edema = assay: Anaphylaxis inhibitory action in mouse auricular edema (anti-TNP-IgE / picryl chloride); type: in vivo
Experimental: C3H/Hecrj, 7-week-old female mice having body weights of 15-20 g were used in groups of five animals each. Tomato Extract 1 was suspended in 0.5% CMC-Na (sodium carboxymethyl cellulose) solution, while 0.5% CMC-Na was administered as a control. The samples were administered six times over the course of five days, and measurements were made on day 5. The animals were dosed once a day from day 1 through day 4, and on day 5, they were orally dosed twice, 4 hours before and 30 minutes after administration of anti-TNP-IgE solution. The dose of Tomato Extract 1 was 0.16 mg, 0.8 mg or 4 mg per 1 kg of mouse body weight.
0.2 ml of 1% anti-TNP-IgE solution was administered from the vein of eye ground, and 30 minutes later, sample solution was orally administered. Further 30 minutes later, thickness of the left and right ears were measured. Immediately after that, 10 μl of 0.8% acetone-olive oil (1:1) solution of picryl chloride was applied to each ear. The thickness of the left and right ears of the mice were measured two hours after application, and the difference in ear thickness before and after application was taken to represent edema caused by anaphylaxis. A test of significance was carried out using the Student's t-test.
Measurement was made in the same manner as in (1) above, except for administration method. Samples were administered six times over the course of five days, and measurement was made on day 5. The animals were dosed once a day from day 1 through day 4, and on day 5, they were orally dosed twice, 4 hours before and 30 minutes after administration of anti-TNP-IgE solution. The dose of tricaffeoylquinic acid was 0.16 mg, 0.8 mg, 4 mg or 20 mg per kilogram of mouse body weight.

[1] = Cytotoxicity test (Trypan Blue, rat abdominal cavity cells); type: cell-based; details: various concentrations, 37° C., 0-120 minutes
Experimental: To 80 μl of cell suspension (1-2×10^6 cells/ml) prepared in the same manner as in Example 2 were added 20 μl of sample solutions (Tomato Extract 1, naringenin chalcone, tricaffeoylquinic acid or dicaffeoylsuccinylquinic acid obtained in Example 1) with various concentrations, and the mixture was cultured at 37° C. Each of 10 μl aliquots was taken after 0, 10, 20, 60 and 120 minutes from the start of culturing, and each aliquot was added to 20 μl of 0.4% Trypan Blue prepared in advance. Judging those cells that were stained with blue pigment to be dead cells, the number of cells was counted under microscopic examination using a hemocytometer. Viability (percentage of viable cells to the total number of cells) and the number of viable cells were measured.

[2] = Rattus norvegicus, histamine release
[3] = Rattus norvegicus, histamine release, read-out: Inhibition rate (%)

| Structure (SMILES) | IC50 (rat fat cells; [2]) [µg/mL] | inhibition at 25 µg/mL (rat fat cells; [3]) [%] | inhibition at 75 µg/mL (rat fat cells; [3]) [%] | histamine-release inhibiting activity (FIG. 7) (rat fat cells) | cytotoxicity (viability and number of viable cells) [1] | further results |
| --- | --- | --- | --- | --- | --- | --- |
| O=C(/C=C/c1ccc(O)c(O)c1)OC1CC(O)(C(=O)O)CC(OC(=O)/C=C/c2ccc(O)c(O)c2)C1OC(=O)/C=C/c1ccc(O)c(O)c1 (stereo not drawn) [Tricaffeoylquinic acid, 3,4,5-tricaffeoylquinic acid] | ~25 (≈ 36.8 µM) | 54.1 | 93.2 | exhibited a significantly high activity | no cytotoxicity was observed | activity relative to the known agents (caffeic acid, ketotifen fumarate) (rat fat cells): roughly 10 times; inhibition at 5 µg/mL (rat macrophages): 33.5%; inhibition at 50 µg/mL (rat macrophages): 65.8%; inhibition at 500 µg/mL (rat macrophages): 69.7%; anaphylaxis inhibitory action (FIG. 9) (mouse auricular edema; dose 4 mg per kg): exhibited an anaphylaxis inhibitory action; anaphylaxis inhibitory action (FIG. 10) (mouse auricular edema; orally administered, 0.16, 0.8, 4 or 20 mg per kg, six doses over five days): exhibited an anaphylaxis inhibitory action |
| O=C(O)/C=C/c1ccc(O)c(O)c1 [Caffeic acid, caffeic acid, reference compound] | ~250 (≈ 1390 µM) |  |  | more potent in the order of caffeic acid followed by dicaffeoylquinic acid |  | inhibition at 250 µg/mL (rat fat cells; [3]): 50.1% |
| O=C(/C=C/c1ccc(O)cc1)c1c(O)cc(O)cc1O [Naringenin chalcone, 2′,4′,6′,4-tetrahydroxy-chalcone] | ~70 (≈ 257 µM) | 28.2 | 53.9 |  | no cytotoxicity was observed | inhibition at 50 µg/mL (rat fat cells; Rattus norvegicus, histamine release, sample concentration 50 μg/ml, read-out: Inhibition rate (%)): 37.6%; inhibition at 200 µg/mL (rat fat cells; Rattus norvegicus, histamine release, sample concentration 200 μg/ml, read-out: Inhibition rate (%)): 82%; activity relative to the known agents (caffeic acid, ketotifen fumarate) (rat fat cells): roughly 3.5 times; inhibition at 5 µg/mL (rat macrophages): 62.3%; inhibition at 50 µg/mL (rat macrophages): 93.5%; inhibition at 500 µg/mL (rat macrophages): 98.2%; anaphylaxis inhibitory action (FIG. 8) (mouse auricular edema; doses 0.0064, 0.032, 0.16 or 0.8 mg per kg): exhibited an anaphylaxis inhibitory action dose-dependently |
| CN1CCC(=C2c3ccccc3CC(=O)c3sccc32)CC1 [Ketotifen fumarate, ketotifen fumarate, reference compound] | ~250 | 0 | 13.1 |  |  | inhibition at 250 µg/mL (rat fat cells; [3]): 49.4% |
| O=C(O)CCC(=O)OC1C(OC(=O)/C=C/c2ccc(O)c(O)c2)CC(O)(C(=O)O)CC1OC(=O)/C=C/c1ccc(O)c(O)c1 (stereo not drawn) [dicaffeoylsuccinylquinic acid, 3,5-dicaffeoyl-4-succinylquinic acid] |  |  |  | exhibited a significantly high activity | no cytotoxicity was observed |  |
| O=C(/C=C/c1ccc(O)c(O)c1)O[C@@H]1C[C@](O)(C(=O)O)C[C@@H](O)[C@H]1O [chlorogenic acid, reference compound] |  |  |  | did not inhibit histamine-release |  |  |
| O=C(O)[C@]1(O)C[C@@H](O)[C@@H](O)[C@H](O)C1 [quinic acid, reference compound] |  |  |  | did not inhibit histamine-release |  |  |
